From ChEMBL document CHEMBL5696442, “Discovery of type II inhibitors of TGFβ-activated kinase 1 (TAK1) and mitogen-activated protein kinase kinase kinase kinase 2 (MAP4K2)” (J Med Chem, 2015)
Calls of active or inactive are those of the source. The calls are words filed in the database; no cut-off is given here.

Assays:
[1] = molecular target: Serine/threonine-protein kinase SMG1 (Homo sapiens) (UniProt Q96Q15); experiment: Inhibition of SMG1 ATP labeling site in human Huh-7 cell lysate at 1 uM by KiNativ Profiling analysis relative to control; format: subcellular
Chain of Serine/threonine-protein kinase SMG1 (Homo sapiens) (Q96Q15 whole entry): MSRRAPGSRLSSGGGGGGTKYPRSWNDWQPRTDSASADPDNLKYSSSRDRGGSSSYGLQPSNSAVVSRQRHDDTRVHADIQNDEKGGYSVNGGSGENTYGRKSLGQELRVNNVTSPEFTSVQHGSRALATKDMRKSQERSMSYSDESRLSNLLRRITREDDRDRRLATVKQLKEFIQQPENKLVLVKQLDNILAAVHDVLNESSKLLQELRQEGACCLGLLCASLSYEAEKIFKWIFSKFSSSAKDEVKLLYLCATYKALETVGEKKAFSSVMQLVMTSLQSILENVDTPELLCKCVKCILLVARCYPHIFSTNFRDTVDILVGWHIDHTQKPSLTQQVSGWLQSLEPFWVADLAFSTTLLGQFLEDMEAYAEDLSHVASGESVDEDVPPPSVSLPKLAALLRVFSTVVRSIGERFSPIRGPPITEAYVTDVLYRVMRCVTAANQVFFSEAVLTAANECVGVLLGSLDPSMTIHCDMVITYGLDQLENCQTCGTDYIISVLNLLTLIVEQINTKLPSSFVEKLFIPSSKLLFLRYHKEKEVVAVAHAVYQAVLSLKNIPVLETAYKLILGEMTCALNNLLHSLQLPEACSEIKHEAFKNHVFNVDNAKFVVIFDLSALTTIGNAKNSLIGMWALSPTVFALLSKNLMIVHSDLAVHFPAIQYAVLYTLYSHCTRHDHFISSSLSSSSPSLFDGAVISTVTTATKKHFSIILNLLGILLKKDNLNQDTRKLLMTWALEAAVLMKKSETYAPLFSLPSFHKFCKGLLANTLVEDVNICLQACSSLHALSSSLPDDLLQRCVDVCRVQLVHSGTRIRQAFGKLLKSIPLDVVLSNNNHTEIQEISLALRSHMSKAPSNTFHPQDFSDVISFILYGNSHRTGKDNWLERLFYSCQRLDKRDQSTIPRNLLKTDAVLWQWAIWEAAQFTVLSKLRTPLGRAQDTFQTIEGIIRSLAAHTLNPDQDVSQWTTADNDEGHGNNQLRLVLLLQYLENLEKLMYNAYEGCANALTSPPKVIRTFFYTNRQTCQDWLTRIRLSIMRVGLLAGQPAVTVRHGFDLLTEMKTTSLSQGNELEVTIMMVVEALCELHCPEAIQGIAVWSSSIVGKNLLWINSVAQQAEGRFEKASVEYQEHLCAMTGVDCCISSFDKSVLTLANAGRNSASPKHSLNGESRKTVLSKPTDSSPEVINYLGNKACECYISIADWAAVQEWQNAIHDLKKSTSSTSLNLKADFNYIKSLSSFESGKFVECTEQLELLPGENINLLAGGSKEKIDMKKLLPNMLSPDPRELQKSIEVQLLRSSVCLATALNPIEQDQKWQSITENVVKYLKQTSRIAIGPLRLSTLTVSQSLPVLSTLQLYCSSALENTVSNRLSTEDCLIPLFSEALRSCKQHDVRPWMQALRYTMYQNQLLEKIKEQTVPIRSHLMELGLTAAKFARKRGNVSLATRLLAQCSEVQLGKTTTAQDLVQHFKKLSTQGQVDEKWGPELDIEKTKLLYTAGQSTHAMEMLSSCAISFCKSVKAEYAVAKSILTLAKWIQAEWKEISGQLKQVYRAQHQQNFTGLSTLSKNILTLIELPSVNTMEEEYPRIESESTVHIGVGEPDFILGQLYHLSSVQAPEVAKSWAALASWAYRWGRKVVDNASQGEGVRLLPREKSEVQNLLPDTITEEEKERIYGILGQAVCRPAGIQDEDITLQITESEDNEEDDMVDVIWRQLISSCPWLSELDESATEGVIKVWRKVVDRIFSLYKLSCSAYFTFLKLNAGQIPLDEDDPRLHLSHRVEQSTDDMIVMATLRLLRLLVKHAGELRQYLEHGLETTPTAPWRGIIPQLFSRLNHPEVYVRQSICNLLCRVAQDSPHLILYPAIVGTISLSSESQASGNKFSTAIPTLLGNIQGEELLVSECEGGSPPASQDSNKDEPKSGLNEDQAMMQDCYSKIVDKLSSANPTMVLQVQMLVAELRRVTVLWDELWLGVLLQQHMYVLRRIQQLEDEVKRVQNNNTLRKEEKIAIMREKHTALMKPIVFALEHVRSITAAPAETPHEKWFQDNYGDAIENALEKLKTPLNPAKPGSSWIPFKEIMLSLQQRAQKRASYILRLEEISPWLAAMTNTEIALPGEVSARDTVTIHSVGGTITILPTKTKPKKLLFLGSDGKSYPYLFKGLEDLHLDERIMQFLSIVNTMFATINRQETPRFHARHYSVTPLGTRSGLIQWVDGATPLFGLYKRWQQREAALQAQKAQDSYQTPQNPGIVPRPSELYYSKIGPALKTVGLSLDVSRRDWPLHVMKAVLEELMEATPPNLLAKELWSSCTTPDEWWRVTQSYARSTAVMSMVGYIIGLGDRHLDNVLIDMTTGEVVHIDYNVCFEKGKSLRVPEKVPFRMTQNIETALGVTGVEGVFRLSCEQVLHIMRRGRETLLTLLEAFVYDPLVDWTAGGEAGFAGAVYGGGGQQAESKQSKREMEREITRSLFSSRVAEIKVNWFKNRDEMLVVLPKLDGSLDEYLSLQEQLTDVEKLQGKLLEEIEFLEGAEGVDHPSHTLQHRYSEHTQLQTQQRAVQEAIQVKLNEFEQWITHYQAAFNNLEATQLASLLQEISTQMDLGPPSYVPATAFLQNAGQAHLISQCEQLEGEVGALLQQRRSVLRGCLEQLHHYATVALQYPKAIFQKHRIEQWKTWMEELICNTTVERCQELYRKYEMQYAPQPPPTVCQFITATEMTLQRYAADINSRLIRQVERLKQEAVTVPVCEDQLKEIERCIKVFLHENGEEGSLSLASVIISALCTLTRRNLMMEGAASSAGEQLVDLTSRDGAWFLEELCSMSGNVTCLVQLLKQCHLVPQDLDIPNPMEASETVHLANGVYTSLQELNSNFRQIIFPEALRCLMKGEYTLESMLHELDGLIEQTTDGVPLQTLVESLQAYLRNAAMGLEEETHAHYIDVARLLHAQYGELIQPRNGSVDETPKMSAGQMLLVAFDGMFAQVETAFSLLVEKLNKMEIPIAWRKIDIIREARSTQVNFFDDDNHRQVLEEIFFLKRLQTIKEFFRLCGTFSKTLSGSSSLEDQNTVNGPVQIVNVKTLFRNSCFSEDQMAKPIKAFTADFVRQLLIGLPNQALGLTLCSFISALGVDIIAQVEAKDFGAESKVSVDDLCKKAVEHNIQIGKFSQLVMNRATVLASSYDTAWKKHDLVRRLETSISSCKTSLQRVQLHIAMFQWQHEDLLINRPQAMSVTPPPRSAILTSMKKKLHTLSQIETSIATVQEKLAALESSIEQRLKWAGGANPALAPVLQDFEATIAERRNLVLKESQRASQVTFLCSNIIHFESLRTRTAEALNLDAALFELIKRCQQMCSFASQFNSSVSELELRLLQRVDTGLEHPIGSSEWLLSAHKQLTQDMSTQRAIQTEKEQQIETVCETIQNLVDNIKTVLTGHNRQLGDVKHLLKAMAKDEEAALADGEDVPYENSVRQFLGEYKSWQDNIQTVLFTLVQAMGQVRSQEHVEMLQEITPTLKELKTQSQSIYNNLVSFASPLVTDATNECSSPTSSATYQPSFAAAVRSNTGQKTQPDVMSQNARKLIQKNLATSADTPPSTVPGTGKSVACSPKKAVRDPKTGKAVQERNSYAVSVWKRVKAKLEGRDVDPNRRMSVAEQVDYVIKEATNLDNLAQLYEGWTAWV

[2] = molecular target: Microtubule-associated serine/threonine-protein kinase 2 (Homo sapiens) (UniProt Q6P0Q8); experiment: Inhibition of MAST2 Lys2 labeling site harbouring DLKPDNLLVTSMGHIK in human Huh-7 cells at 1 uM by KiNativ Profiling analysis relative to control; format: cell-based
[3] = molecular target: T1, Acylglycerol kinase, mitochondrial (Homo sapiens) (UniProt Q53H12); experiment: Inhibition of AGK ATP labeling site in human Huh-7 cells at 10 uM by KiNativ Profiling analysis relative to control; format: cell-based
T1 sequence (whole entry): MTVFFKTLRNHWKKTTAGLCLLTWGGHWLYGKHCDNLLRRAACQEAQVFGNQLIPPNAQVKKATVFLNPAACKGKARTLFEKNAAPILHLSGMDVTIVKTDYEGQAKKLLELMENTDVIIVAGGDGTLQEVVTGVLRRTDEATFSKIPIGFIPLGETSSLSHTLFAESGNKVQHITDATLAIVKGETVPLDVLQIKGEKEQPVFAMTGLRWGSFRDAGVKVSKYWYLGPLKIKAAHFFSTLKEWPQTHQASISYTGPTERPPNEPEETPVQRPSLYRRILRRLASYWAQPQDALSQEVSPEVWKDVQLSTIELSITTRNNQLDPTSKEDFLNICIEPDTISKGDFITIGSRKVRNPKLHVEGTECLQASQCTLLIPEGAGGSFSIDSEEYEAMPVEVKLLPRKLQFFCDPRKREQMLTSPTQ

[4] = molecular target: T2, Serine/threonine-protein kinase ULK3 (Homo sapiens) (UniProt Q6PHR2); experiment: Inhibition of ULK3 (unknown origin) at 10 uM by Ambit Kinomescan binding assay relative to control; values are per cent of control
T2 sequence (whole entry): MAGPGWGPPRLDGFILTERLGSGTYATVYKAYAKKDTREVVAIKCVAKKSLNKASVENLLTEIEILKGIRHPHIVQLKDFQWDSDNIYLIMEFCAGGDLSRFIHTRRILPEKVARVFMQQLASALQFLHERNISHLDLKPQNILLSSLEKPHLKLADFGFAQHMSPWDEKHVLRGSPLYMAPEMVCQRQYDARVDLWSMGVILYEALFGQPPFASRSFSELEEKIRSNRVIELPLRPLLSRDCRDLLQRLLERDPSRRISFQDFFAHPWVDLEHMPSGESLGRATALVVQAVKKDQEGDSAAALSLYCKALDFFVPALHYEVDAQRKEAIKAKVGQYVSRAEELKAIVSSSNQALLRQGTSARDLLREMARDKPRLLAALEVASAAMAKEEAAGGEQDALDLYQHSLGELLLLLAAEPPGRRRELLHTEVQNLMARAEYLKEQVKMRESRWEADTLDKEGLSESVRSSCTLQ

[5] = molecular target: Mitogen-activated protein kinase kinase kinase 20 (Homo sapiens, UniProt Q9NYL2); experiment: Inhibition of ZAK K1 labeling site in human Huh-7 cells at 1 uM by KiNativ Profiling analysis relative to control; format: cell-based
[6] = molecular target: T3, Serine/threonine-protein kinase Chk1 (Homo sapiens) (UniProt O14757); experiment: Inhibition of CHK1 in human Huh-7 cells at 1 uM by KiNativ Profiling analysis relative to control; format: cell-based
T3 sequence (whole entry): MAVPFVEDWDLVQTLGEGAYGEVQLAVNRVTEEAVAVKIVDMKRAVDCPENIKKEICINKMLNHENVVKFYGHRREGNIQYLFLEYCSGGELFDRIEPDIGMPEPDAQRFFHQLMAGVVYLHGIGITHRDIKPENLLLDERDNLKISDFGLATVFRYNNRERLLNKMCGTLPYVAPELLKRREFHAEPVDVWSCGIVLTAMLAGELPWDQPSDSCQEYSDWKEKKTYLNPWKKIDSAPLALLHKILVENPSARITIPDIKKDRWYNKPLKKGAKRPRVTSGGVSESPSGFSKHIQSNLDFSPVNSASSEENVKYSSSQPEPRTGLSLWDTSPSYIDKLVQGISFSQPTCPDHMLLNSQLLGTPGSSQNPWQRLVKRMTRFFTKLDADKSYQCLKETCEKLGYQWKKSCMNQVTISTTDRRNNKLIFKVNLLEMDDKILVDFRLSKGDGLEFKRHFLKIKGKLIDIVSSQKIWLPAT

[7] = molecular target: Mitogen-activated protein kinase kinase kinase kinase 4 (Homo sapiens, UniProt O95819); experiment: Inhibition of ZC1/HGK K2 labeling site in human Huh-7 cells at 1 uM by KiNativ Profiling analysis relative to control; format: cell-based
[8] = molecular target: Ankyrin repeat and protein kinase domain-containing protein 1 (Homo sapiens) (UniProt Q8NFD2); experiment: Inhibition of ANKK1 (unknown origin) at 1 uM by Ambit Kinomescan binding assay relative to control
Chain of Ankyrin repeat and protein kinase domain-containing protein 1 (Homo sapiens) (Q8NFD2 whole entry, the tested form may be a part): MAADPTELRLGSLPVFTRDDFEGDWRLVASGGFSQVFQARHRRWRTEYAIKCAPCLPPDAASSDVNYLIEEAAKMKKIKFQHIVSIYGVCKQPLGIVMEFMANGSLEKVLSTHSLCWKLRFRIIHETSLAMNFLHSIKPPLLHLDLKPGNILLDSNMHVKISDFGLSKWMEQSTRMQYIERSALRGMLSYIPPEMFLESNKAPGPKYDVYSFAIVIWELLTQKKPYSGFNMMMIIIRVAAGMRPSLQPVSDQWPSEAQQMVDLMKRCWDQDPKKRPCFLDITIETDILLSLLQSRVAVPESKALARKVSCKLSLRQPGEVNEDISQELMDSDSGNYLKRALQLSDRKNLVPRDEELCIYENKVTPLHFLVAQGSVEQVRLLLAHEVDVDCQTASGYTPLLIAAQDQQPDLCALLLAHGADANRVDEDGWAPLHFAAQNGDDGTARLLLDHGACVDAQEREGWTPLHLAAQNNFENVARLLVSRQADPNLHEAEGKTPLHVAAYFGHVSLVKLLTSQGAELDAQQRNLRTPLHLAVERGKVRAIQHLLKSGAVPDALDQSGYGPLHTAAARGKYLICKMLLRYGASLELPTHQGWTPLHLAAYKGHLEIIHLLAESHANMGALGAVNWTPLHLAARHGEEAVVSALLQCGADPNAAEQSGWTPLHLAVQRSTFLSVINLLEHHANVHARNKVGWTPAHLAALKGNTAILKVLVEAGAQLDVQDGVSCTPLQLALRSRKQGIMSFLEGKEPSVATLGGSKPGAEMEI

[9] = molecular target: Serine/threonine-protein kinase Chk2 (Homo sapiens) (UniProt O96017); experiment: Inhibition of CHK2 Lys1 labeling site in human A-375 cells at 0.5 uM by KiNativ Profiling analysis relative to control; format: cell-based
Chain of Serine/threonine-protein kinase Chk2 (Homo sapiens) (O96017 whole entry): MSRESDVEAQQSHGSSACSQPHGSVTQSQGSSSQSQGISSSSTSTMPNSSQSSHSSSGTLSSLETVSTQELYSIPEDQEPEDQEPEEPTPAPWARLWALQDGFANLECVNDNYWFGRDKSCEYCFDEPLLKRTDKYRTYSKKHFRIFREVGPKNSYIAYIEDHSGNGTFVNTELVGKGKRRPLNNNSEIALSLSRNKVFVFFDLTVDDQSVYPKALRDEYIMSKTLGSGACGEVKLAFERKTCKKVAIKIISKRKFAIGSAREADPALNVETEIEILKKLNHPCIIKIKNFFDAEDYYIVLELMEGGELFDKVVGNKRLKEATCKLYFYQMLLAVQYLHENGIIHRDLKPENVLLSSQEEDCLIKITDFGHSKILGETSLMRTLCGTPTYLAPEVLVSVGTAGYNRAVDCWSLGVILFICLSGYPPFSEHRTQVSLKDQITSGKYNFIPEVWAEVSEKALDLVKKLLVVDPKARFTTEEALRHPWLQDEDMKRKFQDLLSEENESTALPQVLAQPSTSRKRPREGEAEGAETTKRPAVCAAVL

[10] = molecular target: T4, Inhibitor of nuclear factor kappa-B kinase subunit beta (Homo sapiens) (UniProt O14920); experiment: Inhibition of IKKb Lys2 labeling site in human A-375 cells at 5 uM by KiNativ Profiling analysis relative to control; format: cell-based
T4 sequence (whole entry): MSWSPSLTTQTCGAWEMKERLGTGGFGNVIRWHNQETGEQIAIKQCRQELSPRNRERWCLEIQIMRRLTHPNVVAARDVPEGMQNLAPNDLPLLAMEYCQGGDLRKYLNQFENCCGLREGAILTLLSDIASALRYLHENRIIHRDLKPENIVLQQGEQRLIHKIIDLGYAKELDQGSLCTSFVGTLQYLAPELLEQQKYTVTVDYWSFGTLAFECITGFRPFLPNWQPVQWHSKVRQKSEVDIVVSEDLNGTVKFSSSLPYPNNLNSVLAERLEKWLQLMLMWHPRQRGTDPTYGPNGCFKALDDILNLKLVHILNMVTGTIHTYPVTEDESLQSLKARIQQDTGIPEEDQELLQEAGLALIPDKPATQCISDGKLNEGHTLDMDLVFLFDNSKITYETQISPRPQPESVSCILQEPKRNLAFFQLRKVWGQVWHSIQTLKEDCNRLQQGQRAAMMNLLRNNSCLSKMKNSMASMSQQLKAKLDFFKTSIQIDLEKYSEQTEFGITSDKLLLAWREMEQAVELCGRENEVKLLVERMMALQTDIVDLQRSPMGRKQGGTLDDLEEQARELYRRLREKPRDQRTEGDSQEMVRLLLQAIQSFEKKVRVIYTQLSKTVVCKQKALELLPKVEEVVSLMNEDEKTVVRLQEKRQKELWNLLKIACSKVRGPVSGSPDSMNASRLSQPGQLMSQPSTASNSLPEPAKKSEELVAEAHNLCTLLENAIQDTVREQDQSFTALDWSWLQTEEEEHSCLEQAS

[11] = molecular target: Mitogen-activated protein kinase kinase kinase 4 (Homo sapiens) (UniProt Q9Y6R4); experiment: Inhibition of MAP3K4 Lys2 labeling site in human A-375 cells at 5 uM by KiNativ Profiling analysis relative to control; format: cell-based

CNc1cc(Oc2cc(C(=O)Nc3cc(N4CCN(C)CC4)cc(C(F)(F)F)c3)ccc2C)ncn1
inhibition [1]: 4.2%
inhibition [2]: 30.2%

CCN1CCN(Cc2ccc(NC(=O)c3ccc(C)c(Oc4ccnc5[nH]ccc45)c3)cc2C(F)(F)F)CC1
inhibition [3]: inactive
residual activity [4]: 0.1%
inhibition [5]: 50.3%
inhibition [6]: -0.4%
inhibition [7]: 23%

CCN1CCN(Cc2ccc(NC(=O)c3ccc(C)c(/C=C/c4cnc5[nH]ccc5c4OC)c3)cc2C(F)(F)F)CC1
inhibition [8]: 6%
inhibition [9]: -4.8%
inhibition [10]: 50.5%
inhibition [11]: 14.2%
